How the values were obtained:
Format in all cases: in vivo
[1] = system: ZEAMX, Field corn, Zea mays L.; assay: Preemergence herbicidal evaluation (Example 148); details: rating scale 0-9, two to four weeks after treatment
Outline: (§1)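 Herbicidal effect is a visual score comparing treated plants with a control for stand, vigor, size, malformation and chlorosis. Treatment was a preemergence spray (~0.125–0.250 kg/ha, aqueous acetone); assessment came 2–4 weeks later.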

[2] = system: IPOHE, Morningglory, Ivyleaf, Ipomoea hederacea, (L)Jacq.; assay: Preemergence herbicidal evaluation (Example 148); details: rating scale 0-9, two to four weeks after treatment
Outline: as §1

[3] = system: ECHCG, Barnyardgrass, Echinochloa crusgalli, (L.)Beau; assay: Preemergence herbicidal evaluation (Example 148); details: rating scale 0-9, two to four weeks after treatment
Outline: as §1

[4] = system: AMBEL, Ragweed, Common, Ambrosia artemiisifolia, L.; assay: Preemergence herbicidal evaluation (Example 148); details: rating scale 0-9, two to four weeks after treatment
Outline: as §1

[5] = system: ABUTH, Velvetleaf, Abutilon theophrasti, Medic.; assay: Preemergence herbicidal evaluation (Example 148); details: rating scale 0-9, two to four weeks after treatment
Outline: as §1

[6] = system: TRZAW, Winter wheat, Tritium Aestivum, L. (Winter); assay: Preemergence herbicidal evaluation (Example 148); details: rating scale 0-9, two to four weeks after treatment
Outline: as §1

[7] = system: SETVI, Green foxtail, Setaria viridis, (L.)Beau; assay: Preemergence herbicidal evaluation (Example 148); details: rating scale 0-9, two to four weeks after treatment
Outline: as §1

[8] = system: ALOMY, Blackgrass, Alopecurus myosuroides; assay: Preemergence herbicidal evaluation (Example 148); details: rating scale 0-9, two to four weeks after treatment
Outline: as §1

[9] = system: DIGSA, Crabgrass, (Hairy) L, Digitaria sanguinalis, (L)Scop; assay: Preemergence herbicidal evaluation (Example 148); details: rating scale 0-9, two to four weeks after treatment
Outline: as §1

[10] = system: CHEAL, Lambsquarters, Chenopodium album, L. Common; assay: Preemergence herbicidal evaluation (Example 148); details: rating scale 0-9, two to four weeks after treatment
Outline: as §1

[11] = system: GLXMA, Soybean, Glycine max, (L.) Merr.; assay: Preemergence herbicidal evaluation (Example 148); details: rating scale 0-9, two to four weeks after treatment
Outline: as §1

[12] = system: XANST, Cocklebur, Xanthium strumariam; assay: Preemergence herbicidal evaluation (Example 148); details: rating scale 0-9, two to four weeks after treatment
Outline: as §1

[13] = system: ZEAMX, Field corn, Zea mays L.; assay: Postemergence herbicidal evaluation (Example 147); details: rating scale 0-9, two to three weeks after treatment
Outline: (§2)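 Visual 0-9 rating against an untreated control, scored roughly two to three weeks after a postemergence spray of two-week-old seedlings. Dose equivalent about 0.016 to 0.032 kg/ha, delivered in 80/20 acetone/water with 1.0% SUN-IT II at 40 psi.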

[14] = system: IPOHE, Morningglory, Ivyleaf, Ipomoea hederacea, (L)Jacq.; assay: Postemergence herbicidal evaluation (Example 147); details: rating scale 0-9, two to three weeks after treatment
Outline: as §2

[15] = system: ECHCG, Barnyardgrass, Echinochloa crusgalli, (L.)Beau; assay: Postemergence herbicidal evaluation (Example 147); details: rating scale 0-9, two to three weeks after treatment
Outline: as §2

[16] = system: AMBEL, Ragweed, Common, Ambrosia artemiisifolia, L.; assay: Postemergence herbicidal evaluation (Example 147); details: rating scale 0-9, two to three weeks after treatment
Outline: as §2

[17] = system: ABUTH, Velvetleaf, Abutilon theophrasti, Medic.; assay: Postemergence herbicidal evaluation (Example 147); details: rating scale 0-9, two to three weeks after treatment
Outline: as §2

[18] = system: TRZAW, Winter wheat, Tritium Aestivum, L. (Winter); assay: Postemergence herbicidal evaluation (Example 147); details: rating scale 0-9, two to three weeks after treatment
Outline: as §2

[19] = system: SETVI, Green foxtail, Setaria viridis, (L.)Beau; assay: Postemergence herbicidal evaluation (Example 147); details: rating scale 0-9, two to three weeks after treatment
Outline: as §2

[20] = system: ALOMY, Blackgrass, Alopecurus myosuroides; assay: Postemergence herbicidal evaluation (Example 147); details: rating scale 0-9, two to three weeks after treatment
Outline: as §2

[21] = system: DIGSA, Crabgrass, (Hairy) L, Digitaria sanguinalis, (L)Scop; assay: Postemergence herbicidal evaluation (Example 147); details: rating scale 0-9, two to three weeks after treatment
Outline: as §2

[22] = system: CHEAL, Lambsquarters, Chenopodium album, L. Common; assay: Postemergence herbicidal evaluation (Example 147); details: rating scale 0-9, two to three weeks after treatment
Outline: as §2

[23] = system: GLXMA, Soybean, Glycine max, (L.) Merr.; assay: Postemergence herbicidal evaluation (Example 147); details: rating scale 0-9, two to three weeks after treatment
Outline: as §2

[24] = system: XANST, Cocklebur, Xanthium strumariam; assay: Postemergence herbicidal evaluation (Example 147); details: rating scale 0-9, two to three weeks after treatment
Outline: as §2

## CCC(C)N(C)S(=O)(=O)NC(=O)c1cc(-n2c(=O)cc(C(F)(F)F)n(C)c2=O)c(F)cc1Cl (stereo not drawn) [Example 69]
[1]; rate 0.125 kg/ha
  Preemergence herbicidal rating ZEAMX: 2.0
[1]; rate 0.25 kg/ha
  Preemergence herbicidal rating ZEAMX: 3.0
[2]; rate 0.125 kg/ha
  Preemergence herbicidal rating IPOHE: 9.0
[2]; rate 0.25 kg/ha
  Preemergence herbicidal rating IPOHE: 9.0
[3]; rate 0.125 kg/ha
  Preemergence herbicidal rating ECHCG: 2.0
[3]; rate 0.25 kg/ha
  Preemergence herbicidal rating ECHCG: 3.0
[4]; rate 0.125 kg/ha
  Preemergence herbicidal rating AMBEL: 8.0
[4]; rate 0.25 kg/ha
  Preemergence herbicidal rating AMBEL: 9.0
[5]; rate 0.125 kg/ha
  Preemergence herbicidal rating ABUTH: 9.0
[5]; rate 0.25 kg/ha
  Preemergence herbicidal rating ABUTH: 9.0
[6]; rate 0.125 kg/ha
  Preemergence herbicidal rating TRZAW: 0.0
[6]; rate 0.25 kg/ha
  Preemergence herbicidal rating TRZAW: 0.0
[7]; rate 0.125 kg/ha
  Preemergence herbicidal rating SETVI: 0.0
[7]; rate 0.25 kg/ha
  Preemergence herbicidal rating SETVI: 1.0
[8]; rate 0.125 kg/ha
  Preemergence herbicidal rating ALMOY: 0.0
[8]; rate 0.25 kg/ha
  Preemergence herbicidal rating ALMOY: 0.0
[9]; rate 0.125 kg/ha
  Preemergence herbicidal rating DIGSA: 3.0
[9]; rate 0.25 kg/ha
  Preemergence herbicidal rating DIGSA: 3.0
[10]; rate 0.125 kg/ha
  Preemergence herbicidal rating CHEAL: 9.0
[10]; rate 0.25 kg/ha
  Preemergence herbicidal rating CHEAL: 9.0
[11]; rate 0.125 kg/ha
  Preemergence herbicidal rating GLXMA: 0.0
[11]; rate 0.25 kg/ha
  Preemergence herbicidal rating GLXMA: 3.0
[12]; rate 0.125 kg/ha
  Preemergence herbicidal rating XANST: 3.0
[12]; rate 0.25 kg/ha
  Preemergence herbicidal rating XANST: 4.0
[13]; rate 0.016 kg/ha
  Postemergence herbicidal rating ZEAMX: 7.0
[13]; rate 0.032 kg/ha
  Postemergence herbicidal rating ZEAMX: 7.5
[14]; rate 0.016 kg/ha
  Postemergence herbicidal rating IPOHE: 9.0
[14]; rate 0.032 kg/ha
  Postemergence herbicidal rating IPOHE: 9.0
[15]; rate 0.016 kg/ha
  Postemergence herbicidal rating ECHCG: 5.0
[15]; rate 0.032 kg/ha
  Postemergence herbicidal rating ECHCG: 7.0
[16]; rate 0.016 kg/ha
  Postemergence herbicidal rating AMBEL: 9.0
[16]; rate 0.032 kg/ha
  Postemergence herbicidal rating AMBEL: 9.0
[17]; rate 0.016 kg/ha
  Postemergence herbicidal rating ABUTH: 9.0
[17]; rate 0.032 kg/ha
  Postemergence herbicidal rating ABUTH: 9.0
[18]; rate 0.016 kg/ha
  Postemergence herbicidal rating TRZAW: 5.0
[18]; rate 0.032 kg/ha
  Postemergence herbicidal rating TRZAW: 6.5
[19]; rate 0.016 kg/ha
  Postemergence herbicidal rating SETVI: 5.0
[19]; rate 0.032 kg/ha
  Postemergence herbicidal rating SETVI: 6.0
[20]; rate 0.016 kg/ha
  Postemergence herbicidal rating ALMOY: 1.0
[20]; rate 0.032 kg/ha
  Postemergence herbicidal rating ALMOY: 2.0
[21]; rate 0.016 kg/ha
  Postemergence herbicidal rating DIGSA: 4.0
[21]; rate 0.032 kg/ha
  Postemergence herbicidal rating DIGSA: 6.0
[22]; rate 0.016 kg/ha
  Postemergence herbicidal rating CHEAL: 8.0
[22]; rate 0.032 kg/ha
  Postemergence herbicidal rating CHEAL: 8.0
[23]; rate 0.016 kg/ha
  Postemergence herbicidal rating GLXMA: 8.0
[23]; rate 0.032 kg/ha
  Postemergence herbicidal rating GLXMA: 8.0
[24]; rate 0.016 kg/ha
  Postemergence herbicidal rating XANST: 9.0
[24]; rate 0.032 kg/ha
  Postemergence herbicidal rating XANST: 9.0

Source: US6689773B2, “Uracil substituted phenyl sulfamoyl carboxamides” (BASF Aktiengesellschaft, priority 2000, dated 2004)
